Assay results: patent publication US20080311126A1, “Antisense Oligonucleotides Directed to Ribonucleotide Reducatase R2 and Uses Thereof in Combination Therapies for the Treatment of Cancer” (Genesense Technologies, Inc, priority 2004, published 2008)

Test system: Caki-1 human renal carcinoma
Test: Caki-1 renal tumour xenograft in SCID mice, SEQ ID NO:1 and interferon alpha
Format: in vivo
Procedure: Cell Line: Human renal carcinoma cell line (Caki-1) was grown as monolayer culture in Minimum essential medium (α-MEM) supplemented with 10% fetal bovine serum (FEBS), 0.1 mM non-essential amino acid, 1.0 mM sodium pyruvate, 100 U/ml penicillin, 100 μg/ml streptomycin and 0.25 μg/ml amphotericin B and 2 mM L-alanyl-L-glutamine at 37° C. in an atmosphere of 5% CO2 in air. The tumour cells were routinely subcultured twice weekly by trypsin-EDTA treatment. The cells were harvested from subconfluent logarithmically growing culture by treatment with trypsin-EDTA and counted for tumour inoculation.
Tumour Inoculation: An acclimation period of at least 7 days was allowed between animal receipt and commencement of tumour inoculation. When the female SCID mice were 6-7 weeks of age (20-25 g), each mouse was subcutaneously (s.c.) injected with 5×10^6 Caki-1 human renal carcinoma cells in 0.1 ml of PBS at the right flank of the mice to induce tumour growth.
Dose-Preparation and Treatment: The dose for SEQ ID NO:1 was formulated using the following procedure. From a concentrated stock solution (usually prepared in ddH2O at a concentration of 50 mg/ml and kept at −80° C.), SEQ ID NO:1 was diluted with saline to achieve a final target concentration of 1 or 2.5 mg/ml on the first day of dosing. Enough SEQ ID NO:1 was diluted so that the compound could be administered by bolus infusion into the tail vein every other day for the duration of the experiment. Recombinant interferon alfa-2b (Intron A™) was utilized according to the dose and treatment schedules below. The treatments were started 7 days after the tumour cell inoculation when the tumour size reached an approximate volume of 125 mm^3. Each treatment group contained 10 tumour-bearing mice. Routes of administration are indicated as follows: intravenous (i.v.) and intratumoural (i:t.).
Groups and Treatments: The following treatment groups were evaluated: • 1. Saline treated group-1: saline 0.1 ml/mouse/48 hours, i.v., n=10 • 2. Saline treated group-2: saline 0.05 ml/mouse/5 days/week, i.t., n=10 • 3. […] Intron A 10^3 unit/5 days/week treated group: 10^3 unit Intron A in 0.05 ml saline, i.t., n=10 • 6. Intron A 10^5 unit/5 days/week treated group: 10^5 unit Intron A in 0.05 ml saline, i.t., n=10 • 7. SEQ ID NO:1 1 mg/kg Plus Intron A 10^3 treated group: “3+5”, n=10 • 8. SEQ ID NO:1 1 mg kg Plus Intron A 10^5 treated group: “3+6”, n=10 • 9. SEQ ID NO:1 2.5 mg/kg Plus Intron A […], n=10 • 10. SEQ ID NO:1 2.5 mg/kg Plus Intron A 10^5 treated group: “4+6”, n=10
Mice received 25 treatments with SEQ ID NO:1 and 30 treatments with Intron A. The dosing schedule for Intron A was: treatment with Intron A for 3 consecutive weeks, 1 week off, and treatment with Intron A again for another 3 consecutive weeks. The dosing schedule for SEQ ID NO:1 was treatment with SEQ ID NO:1 every other day for the duration of the experiment.
Endpoints: The effects of SEQ ID NO:1 and Intron A on tumour growth were determined. Tumour sizes were measured every week from day 7 after the tumour cell inoculation in two dimensions using a caliper, and the volume was expressed in mm^3 using the formula: V=0.5 a×b^2, where a and b are the long and short diameters of the tumour, respectively. Mean tumour volumes calculated from each measurement were then plotted in a standard graph to compare the anti-tumour efficacy to that of controls. A day after the last treatment, tumours were excised from the animals and their weights were measured.
A second independent in vivo study was conducted as described in Example 1 utilizing SCID mice (female, 6 weeks old) and Caki-1 (human renal carcinoma cell line) to test the efficacy of SEQ ID NO:1 in combination with IFN alpha Briefly, 5×10^6 Caki-1 human renal carcinoma cells in 0.1 ml of PBS were injected subcutaneously at the right flank of the mice to induce tumour growth. Treatments started on the seventh day after tumour cell injection. […]

Measured: anti-tumour efficacy (tumour volume, tumour weight)

GGCTAAATCGCTCCACCAAG (chemistry not given here) [SEQ ID NO: 1, antisense oligonucleotide that hybridizes to the coding region of human ribonucleotide reductase R2 mRNA]
significant anti-tumour efficacy: Example 2, SEQ ID NO:1 1 or 2.5 mg/kg/48 hours i.v., Intron A 10^3 or 10^5 unit 5 days/week i.t. | Example 3, SEQ ID NO:1 2.5 or 5 mg/kg every 2 days i.v., Intron 10^5 unit 5 days/week i.t. | Example 4, oligonucleotide 2.5 mg/kg every 2 days i.v., Intron A 10^5 unit 5 days/week i.t.
